Several values for one entry are separate records, joined by “and”; a condition that tells them apart may be missing. Identical values can stand only once. After the bases stand the sugars from the 5' end (letter, count) and the backbone: PS all phosphorothioate, else s phosphorothioate and o phosphodiester by linkage. Methylation of C is not given here. k = constrained ethyl (cEt); d = 2'-deoxy (DNA)
target: MALAT1; settings: ASO, A431, 0.005 µM

| Sequence | target mRNA inhibition |
| --- | --- |
| CTCCCCTTCAAGCACC (sugars k3 d10 k3, PS) | 4% |
| CTCGCATCACCGGAAT (sugars k3 d10 k3, PS) | -14% |
| CTCGCCTCCTCCGTGT (sugars k3 d10 k3, PS) | 10% |
| CTCGCTTTCCCTGTGG (sugars k3 d10 k3, PS) | 17% |
| CTCTAAGAGACATTCA (sugars k3 d10 k3, PS) | 23% |
| CTCTATACTTTGAAGG (sugars k3 d10 k3, PS) | 20% |
| CTCTCATTTATTTCGG (sugars k3 d10 k3, PS) | 59% and 84% |
| CTCTGCAGTTTCTATA (sugars k3 d10 k3, PS) | 31% |
| CTCTTGAGGGACAGTA (sugars k3 d10 k3, PS) | 4% |
| CTGAACCGGAGCAGGA (sugars k3 d10 k3, PS) | -13% |
| CTGAACTATCACAATT (sugars k3 d10 k3, PS) | 28% |
| CTGCAAGGTCTCATAC (sugars k3 d10 k3, PS) | 24% |
| CTGCAGATGCAAGTTA (sugars k3 d10 k3, PS) | 49% |
| CTGCAGTTTCTATAGT (sugars k3 d10 k3, PS) | 22% |
| CTGCCAACTAATTGCC (sugars k3 d10 k3, PS) | -32% |
| CTGCCTCAATGCCTAC (sugars k3 d10 k3, PS) | 44% |
| CTGCGACTTGCTCCCA (sugars k3 d10 k3, PS) | 10% |
| CTGCGGTTTCCTCAAG (sugars k3 d10 k3, PS) | 29% |
| CTGCTTACAGATTTGC (sugars k3 d10 k3, PS) | 49% |
| CTGGAAGCTCCTTCTA (sugars k3 d10 k3, PS) | 25% |
| CTGGCATGCTGGTCTA (sugars k3 d10 k3, PS) | 19% |
| CTGTCTGAGGCAAACG (sugars k3 d10 k3, PS) | 37% |
| CTGTTAAGACCATCCC (sugars k3 d10 k3, PS) | 46% |

| Sequence | target mRNA inhibition |
| --- | --- |
| CTTCAGGATCATTAAG (sugars k3 d10 k3, PS) | 3% |
| CTTCCCGTACTTCTGT (sugars k3 d10 k3, PS) | 43% |
| CTTCGGATGCTTCACT (sugars k3 d10 k3, PS) | 33% |
| CTTCGGTTAAAAATAG (sugars k3 d10 k3, PS) | 4% |
| CTTGAAACCGATTATG (sugars k3 d10 k3, PS) | 38% |
| CTTGAATTACTTCCGT (sugars k3 d10 k3, PS) | 56% and 40% |
| CTTGACCTTAGGATAA (sugars k3 d10 k3, PS) | 44% |
| CTTGGGAAATCTTAGA (sugars k3 d10 k3, PS) | -11% |
| CTTTAAATGACGCAAT (sugars k3 d10 k3, PS) | 35% |
| CTTTAAATTGGTAGCT (sugars k3 d10 k3, PS) | 45% |
| CTTTAAGCCTTCGGTG (sugars k3 d10 k3, PS) | -3% |
| CTTTACAGAAGTCTCG (sugars k3 d10 k3, PS) | 22% |
| CTTTATCACTCAGCTG (sugars k3 d10 k3, PS) | 37% |
| CTTTCATAGAGCCTTC (sugars k3 d10 k3, PS) | 43% |
| GAAACCGATTATGGAT (sugars k3 d10 k3, PS) | 34% |
| GAAACCTACAACACCC (sugars k3 d10 k3, PS) | 20% |
| GAAAGTGCCATGGTTG (sugars k3 d10 k3, PS) | 41% |
| GAACAACTCGCATCAC (sugars k3 d10 k3, PS) | 15% |
| GAACCACAACAATTTA (sugars k3 d10 k3, PS) | 19% |
| GAACCGGAGCAGGAAG (sugars k3 d10 k3, PS) | 28% |
| GAAGAATACCATCTGA (sugars k3 d10 k3, PS) | 5% |
| GAAGAATCCCCCCCAA (sugars k3 d10 k3, PS) | 11% |
| GAAGAGATACCTGTCT (sugars k3 d10 k3, PS) | -22% |

| Sequence | target mRNA inhibition |
| --- | --- |
| GAAGAGCCAAGCACTC (sugars k3 d10 k3, PS) | -9% |
| GAAGTCTCGGGCTGCA (sugars k3 d10 k3, PS) | 6% |
| GAATACCATCTGAAAG (sugars k3 d10 k3, PS) | 16% |
| GAATGTTTCTTGTCAC (sugars k3 d10 k3, PS) | 43% |
| GAATTACTTCCGTTAC (sugars k3 d10 k3, PS) | 36% |
| GACCCTACTGAAGAGC (sugars k3 d10 k3, PS) | 32% |
| GACCTCGACACCATCG (sugars k3 d10 k3, PS) | 44% |
| GACCTGAAGTCAAGAC (sugars k3 d10 k3, PS) | -1% |
| GACGGTTGAGAAGTGG (sugars k3 d10 k3, PS) | 25% |
| GACTAAAGGCTTCAGT (sugars k3 d10 k3, PS) | 15% |
| GACTCTGGGAAACCTG (sugars k3 d10 k3, PS) | 1% |
| GAGAAATCGGAGCAGC (sugars k3 d10 k3, PS) | 15% |
| GAGAAGAATCCCCCCC (sugars k3 d10 k3, PS) | 17% |
| GAGATTTGGGCTTTAT (sugars k3 d10 k3, PS) | 34% and 33% |
| GAGCAGCACGGGCTGT (sugars k3 d10 k3, PS) | 14% |
| GAGGCTGACACTTCTC (sugars k3 d10 k3, PS) | -10% |
| GAGTTTGAGTGGTTTT (sugars k3 d10 k3, PS) | 26% |
| GATCACTTTAGAGGCT (sugars k3 d10 k3, PS) | -8% |
| GATCTGGTCCATTAAA (sugars k3 d10 k3, PS) | 25% |
| GATGTATATAGTTCAA (sugars k3 d10 k3, PS) | 7% |
| GATTAGTAGTCAAAGC (sugars k3 d10 k3, PS) | 24% |
| GATTCATGAGTATAAG (sugars k3 d10 k3, PS) | 50% |
| GATTTGAACCCCGTCC (sugars k3 d10 k3, PS) | -2% |

| Sequence | target mRNA inhibition |
| --- | --- |
| GCAAAATGGCGGACTT (sugars k3 d10 k3, PS) | -4% |
| GCAAAATGTACTCAGC (sugars k3 d10 k3, PS) | 23% |
| GCAAATCGCCATGGAA (sugars k3 d10 k3, PS) | 21% |
| GCAAGTTAAACTTATC (sugars k3 d10 k3, PS) | 42% |
| GCACTCATATGCAATT (sugars k3 d10 k3, PS) | 6% |
| GCACTTTTAAAGTCTG (sugars k3 d10 k3, PS) | 74% and 91% |
| GCAGAGTTTGAGTGGT (sugars k3 d10 k3, PS) | -9% |
| GCAGGGACGGTTGAGA (sugars k3 d10 k3, PS) | 8% |
| GCATCTAGGCCATCAT (sugars k3 d10 k3, PS) | 57% |
| GCATTCCCACCCAAAA (sugars k3 d10 k3, PS) | 34% |
| GCCAACAGCACAGCGG (sugars k3 d10 k3, PS) | 8% |
| GCCAAGCCAAGCCGCC (sugars k3 d10 k3, PS) | 14% |
| GCCAAGCCGCCTGCTA (sugars k3 d10 k3, PS) | 20% |
| GCCATGGTTGATATTT (sugars k3 d10 k3, PS) | 9% |
| GCCCCCCAGTTGCCGC (sugars k3 d10 k3, PS) | -35% |
| GCCGCCTCTTAAAGCA (sugars k3 d10 k3, PS) | -11% |
| GCCTACCGCACAGCTC (sugars k3 d10 k3, PS) | 26% |
| GCCTATCTTCTCCAGT (sugars k3 d10 k3, PS) | 27% |
| GCCTCAATCCCACACC (sugars k3 d10 k3, PS) | 2% |
| GCCTTGCAGGGACGGT (sugars k3 d10 k3, PS) | -10% |
| GCGGGATCAGAACAGT (sugars k3 d10 k3, PS) | 40% |
| GCTACTGGCTGCATCG (sugars k3 d10 k3, PS) | 43% |
| GCTCTATACTTTGAAG (sugars k3 d10 k3, PS) | 51% |

| Sequence | target mRNA inhibition |
| --- | --- |
| GCTGAGTGTTCCTGCA (sugars k3 d10 k3, PS) | 22% |
| GCTGCATCGAGGTGAG (sugars k3 d10 k3, PS) | 24% |
| GCTGGTTATGACTCAG (sugars k3 d10 k3, PS) | 9% |
| GCTTAAGAGGGCAGGA (sugars k3 d10 k3, PS) | -7% |
| GCTTTCCCTGTGGCCT (sugars k3 d10 k3, PS) | 10% |
| GGAAATCTTAGAAACG (sugars k3 d10 k3, PS) | 36% |
| GGAATACTCTTCCAAG (sugars k3 d10 k3, PS) | 6% |
| GGACATCTCTTCCACA (sugars k3 d10 k3, PS) | 24% |
| GGACATTGCCTCTTCA (sugars k3 d10 k3, PS) | 54% |
| GGACTTTCTCCCCCAA (sugars k3 d10 k3, PS) | -5% |
| GGAGATCAGCTTCCGC (sugars k3 d10 k3, PS) | -7% |
| GGATCCAAGCTACTGG (sugars k3 d10 k3, PS) | 18% |
| GGATTCTAGACAGACC (sugars k3 d10 k3, PS) | 44% |
| GGATTTTTACCAACCA (sugars k3 d10 k3, PS) | 14% |
| GGCAAATCGCCATGGA (sugars k3 d10 k3, PS) | 22% |
| GGCAGTTATATTAGGT (sugars k3 d10 k3, PS) | 16% |
| GGCCTTTTCTAACATA (sugars k3 d10 k3, PS) | 2% |
| GGCTATCAAATTCATT (sugars k3 d10 k3, PS) | 42% |
| GGCTATTACCTGAAAA (sugars k3 d10 k3, PS) | 6% |
| GGCTGGTTATGACTCA (sugars k3 d10 k3, PS) | 40% |
| GGCTTTAAATGACGCA (sugars k3 d10 k3, PS) | 17% |
| GGGAAAAGTGGTTGCC (sugars k3 d10 k3, PS) | 9% |

Source: the OligoGym collection
